Our source for the IC50 values is patent publication US10457637B2, “Benzenesulfonamide derivatives as inverse agonists of retinoid-related orphan receptor gamma (RORγ(T))” (GALDERMA RESEARCH & DEVELOPMENT, priority 2014, dated 2019).

What all share (format): cell-based
In data set [1] the target is hERG (Homo sapiens (Human), UniProt Q12809). In words: hERG test, patch clamp on CHO-K1 cells. Particulars: CHO-K1 cells transfected with the hERG gene. The source says: In the table below, the median inhibitory concentrations IC50 for the compounds belonging to formula (I) according to the invention have been given in accordance with the hERG test.
hERG, sequence (Q12809 whole entry): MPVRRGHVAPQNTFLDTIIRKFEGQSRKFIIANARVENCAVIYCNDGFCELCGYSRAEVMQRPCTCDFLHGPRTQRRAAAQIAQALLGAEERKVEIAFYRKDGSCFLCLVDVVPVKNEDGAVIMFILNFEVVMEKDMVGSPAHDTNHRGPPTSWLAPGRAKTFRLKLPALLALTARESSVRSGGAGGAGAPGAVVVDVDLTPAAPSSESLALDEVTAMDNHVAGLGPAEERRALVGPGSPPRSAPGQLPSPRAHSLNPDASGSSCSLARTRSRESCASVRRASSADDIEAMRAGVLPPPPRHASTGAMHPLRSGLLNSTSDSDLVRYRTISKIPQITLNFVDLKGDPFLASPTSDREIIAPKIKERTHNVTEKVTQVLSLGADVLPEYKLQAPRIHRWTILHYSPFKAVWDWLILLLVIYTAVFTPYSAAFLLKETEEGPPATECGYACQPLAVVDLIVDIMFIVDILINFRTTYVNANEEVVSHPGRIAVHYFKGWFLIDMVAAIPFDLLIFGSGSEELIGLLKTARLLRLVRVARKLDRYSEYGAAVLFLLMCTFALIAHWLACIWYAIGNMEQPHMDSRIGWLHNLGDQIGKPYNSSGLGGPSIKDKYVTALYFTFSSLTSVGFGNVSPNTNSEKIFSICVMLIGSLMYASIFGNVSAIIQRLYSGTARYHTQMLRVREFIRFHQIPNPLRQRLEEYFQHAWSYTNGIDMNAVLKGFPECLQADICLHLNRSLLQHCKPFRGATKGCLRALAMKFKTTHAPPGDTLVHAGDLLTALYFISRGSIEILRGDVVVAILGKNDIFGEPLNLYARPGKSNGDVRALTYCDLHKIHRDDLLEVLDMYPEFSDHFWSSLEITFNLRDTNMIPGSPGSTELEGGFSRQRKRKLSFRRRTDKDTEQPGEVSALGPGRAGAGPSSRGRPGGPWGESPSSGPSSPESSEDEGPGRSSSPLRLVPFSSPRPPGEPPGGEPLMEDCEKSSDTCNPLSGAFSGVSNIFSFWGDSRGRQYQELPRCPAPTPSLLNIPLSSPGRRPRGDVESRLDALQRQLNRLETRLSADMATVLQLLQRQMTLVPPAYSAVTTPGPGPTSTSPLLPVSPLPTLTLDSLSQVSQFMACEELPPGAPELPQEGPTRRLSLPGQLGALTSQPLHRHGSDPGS
The hERG test makes it possible to study a gene which codes for a protein required for the functioning of heart tissue potassium channels. The patch clamp method on CHO-K1 cells (cells transfected with the hERG gene which has K+ ion activity on the membranes) is used for in vitro prediction of the blocking of hERG (human Ether-a-go-go Related).
The extracellular solution (control) is applied first. The cells (Chinese hamster ovarian cells expressing the Human Ether-a-go-go Related Gene) are stabilized with the extracellular solution for 5 minutes. The cells are incubated for 5 minutes with the molecules from the weakest to the strongest concentration at 0.6% DMSO final.
The result is expressed in the form of an IC50 value in μM.
In general terms: hERG is a cardiac potassium channel; its block is linked to QT prolongation.

Data set [2] concerns IL-17A secretion by CD4+ cells. The experiment in a line: IL-17A secretion by CD4+ cells (HTRF). Particulars: 96 h; human CD4+ cells activated with anti-CD3 and anti-CD28, 4 days of incubation; read-out: IC50 hCD4/IL17. Here is the method:
This model allows measurement of the effect of inhibitors on IL-17A secretion by CD4+ cells. […] The amount of IL-17a secreted is measured by the TR-FRET (kit HTRF® Human Interleukin 17A (Cisbio, #64H17PEC)) technology.
The cells are rapidly thawed, resuspended in their culture medium (RPMI inactivated 10% FCS) supplemented with soluble anti-CD28 antibodies and seeded (100 000 cells/well) in 96-well plates precoated with anti-CD3 antibodies. The cells are then treated with the ranges of inhibitors to be tested (from 1000 nM to 0.05 nM, 0.1% DMSO). […] The IC50 values are calculated from a 4-parameter logistic model using the XLFit software (IDBS).

Data set [3] deals with ROR gamma ligand-binding domain (hRORg) (Homo sapiens (Human), UniProt P51449). In words: GAL4-RORγ transactivation (luciferase reporter, HG5LN HeLa line). Particulars: 18 hours incubation. The method in brief: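 HeLa-derived HG5LN cells stably expressing GAL4 DBD fused to human RORγ LBD with GAL4-driven luciferase reporter; inhibition of constitutive activity lowers luminescence.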
ROR gamma ligand-binding domain (hRORg), sequence (P51449 269-508): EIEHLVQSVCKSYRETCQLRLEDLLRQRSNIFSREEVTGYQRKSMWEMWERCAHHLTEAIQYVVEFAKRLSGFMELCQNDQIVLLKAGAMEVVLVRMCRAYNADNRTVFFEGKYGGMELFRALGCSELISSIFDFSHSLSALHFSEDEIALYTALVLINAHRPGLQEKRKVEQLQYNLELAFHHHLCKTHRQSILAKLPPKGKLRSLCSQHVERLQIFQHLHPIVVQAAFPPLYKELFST
On the technique in general: Reporter assays use an easily measured gene product as a stand-in for the process of interest.

For `CCc1ccc(N(CC(C)C)S(=O)(=O)c2ccc(OCC3CCOCC3)c(S(C)(=N)=O)c2)cc1` (racemic) [compound 26, N-(4-ethylphenyl)-N-isobutyl-3-methanesulfonoximino-4-(tetrahydropyran-4-ylmethoxy)benzenesulfonamide], the IC50 was greater than 30000 nM in data set [1] and less than 100 nM in data set [2].
For the compound `CCc1ccc(N(CC(C)C)S(=O)(=O)c2ccc(OCC3CCOCC3)c([S@@](C)(=N)=O)c2)cc1` (single isomer, unassigned) [compound 8, N-(4-ethylphenyl)-N-isobutyl-3-methanesulfoximino-4-(tetrahydropyran-4-ylmethoxy)benzenesulfonamide], the IC50 in data set [1] was greater than 30000 nM; in data set [2], less than 100 nM.
Turning to `CCc1ccc(N(CC(C)C)S(=O)(=O)c2ccc(OCC3CCOCC3)c([S@](C)(=N)=O)c2)cc1` [compound 7, N-(4-ethylphenyl)-N-isobutyl-3-methanesulfoximino-4-(tetrahydropyran-4-ylmethoxy)benzenesulfonamide], the IC50 in data set [1] is greater than 30000 nM; in data set [2], less than 100 nM.
Take `CCc1ccc(N(CC(C)C)S(=O)(=O)c2ccc(OC[C@H]3[C@@H]4COC[C@@H]43)c(S(C)(=N)=O)c2)cc1` (stereo partly drawn) [compound 35, 4-(((1R,5S,6R)-3-oxabicyclo[3.1.0]hexan-6-yl)methoxy)-N-(4-ethylphenyl)-N-isobutyl-3-(S-methylsulfonimidoyl)benzenesulfonamide]: the IC50 in data set [1] was greater than 30000 nM; in data set [3], less than 100 nM.
Consider `CCc1ccc(N(CC(C)C)S(=O)(=O)c2ccc(OCC3CCSCC3)c(S(C)(=N)=O)c2)cc1` (stereo not shown) [compound 37], for which, in data set [1] (human), the IC50 at 5 min came out at 11800 nM.
Consider `CCc1ccc(N(CC(C)C)S(=O)(=O)c2ccc(N(C)CC3CCOCC3)c(S(C)(=N)=O)c2)cc1` (stereo not shown) [compound 53, N-(4-ethylphenyl)-N-isobutyl-4-(methyl((tetrahydro-2H-pyran-4-yl)methyl)amino)-3-(S-methylsulfonimidoyl)benzenesulfonamide], for which the IC50 in data set [1] is 11800 nM; in data set [2] it was less than 100 nM.
`CCc1ccc(N(CC(C)C)S(=O)(=O)c2ccc(NCC3(C)CCOCC3)c(S(C)(=N)=O)c2)cc1` (stereo not shown) [compound 55, N-(4-ethylphenyl)-N-isobutyl-3-(S-methylsulfonimidoyl)-4-(((4-methyltetrahydro-2H-pyran-4-yl)methyl)amino)benzenesulfonamide]: the IC50 in data set [1] was 14100 nM; in data set [2], less than 100 nM.
Take `CCc1ccc(N(CC(C)C)S(=O)(=O)c2ccc(NCC3CC(O)C3)c(S(C)(=N)=O)c2)cc1` (stereo not shown) [compound 61, N-(4-ethylphenyl)-4-(((3-hydroxycyclobutyl)methyl)amino)-N-isobutyl-3-(S-methylsulfonimidoyl)benzenesulfonamide]: the results for the IC50 in data set [1], in data set [3] and in data set [2] were 25700 nM, less than 100 nM and less than 100 nM, respectively.
In the case of `CCc1ccc(N(CC(C)C)S(=O)(=O)c2ccc(NCC3(F)CCOCC3)c(S(C)(=N)=O)c2)cc1` (stereo not shown) [compound 62, N-(4-ethylphenyl)-4-(((4-fluorotetrahydro-2H-pyran-4-yl)methyl)amino)-N-isobutyl-3-(S-methylsulfonimidoyl)benzenesulfonamide], the values for the IC50 in data set [1] and in data set [2] were 16400 nM and less than 100 nM, respectively.
`CCc1ccc(N(CC(C)C)S(=O)(=O)c2ccc(NCC3CSC3)c(S(C)(=N)=O)c2)cc1` (stereo not shown) [compound 99, N-(4-ethylphenyl)-N-isobutyl-3-(S-methylsulfonimidoyl)-4-((thietan-3-ylmethyl)amino)benzenesulfonamide]: the IC50 in data set [3] and in data set [2] was less than 100 nM in each case.
`CCc1ccc(N(CC(C)C)S(=O)(=O)c2ccc(N3CCOC[C@H]3C)c(S(C)(=N)=O)c2)cc1` (stereo partly drawn) [compound 103, N-(4-ethylphenyl)-N-isobutyl-4-((R)-3-methylmorpholino)-3-(S-methylsulfonimidoyl)benzenesulfonamide]: the IC50 in data set [3] and in data set [2] was greater than 1000 nM in each case.
With `CCc1ccc(N(CC(C)C)S(=O)(=O)c2ccc(N3CCC4(COC4)C3)c(S(C)(=N)=O)c2)cc1` (stereo not shown) [compound 112, N-(4-ethylphenyl)-N-isobutyl-3-(S-methylsulfonimidoyl)-4-(2-oxa-6-azaspiro[3.4]octan-6-yl)benzenesulfonamide], the IC50 in data set [3] is 100 to 1000 nM; in data set [2], less than 100 nM.
For the compound `CCc1ccc(N(CC(C)C)S(=O)(=O)c2ccc(N3CCOCC3)c(S(C)(=N)=O)c2)cc1` (stereo not shown) [compound 123, N-(4-ethylphenyl)-N-isobutyl-3-(S-methylsulfonimidoyl)-4-morpholinobenzenesulfonamide], the IC50 in data set [3] and in data set [2] was less than 100 nM in each case.
Turning to `CCc1ccc(N(CC(C)C)S(=O)(=O)c2ccc(NCC3(OC)CCOCC3)c(S(C)(=N)=O)c2)cc1` (stereo not shown) [compound 125, N-(4-ethylphenyl)-N-isobutyl-4-(((4-methoxytetrahydro-2H-pyran-4-yl)methyl)amino)-3-(S-methylsulfonimidoyl)benzenesulfonamide], the IC50 was 100 to 1000 nM in data set [3] and greater than 1000 nM in data set [2].
Take `CCc1ccc(N(CC(C)C)S(=O)(=O)c2ccc(N3CCC(O)CC3)c(S(C)(=N)=O)c2)cc1` (stereo not shown) [compound 128, N-(4-ethylphenyl)-4-(4-hydroxypiperidin-1-yl)-N-isobutyl-3-(S-methylsulfonimidoyl)benzenesulfonamide]: the IC50 in data set [3] and in data set [2] was greater than 1000 nM each time.
For the compound `CCc1ccc(N(CC(C)C)S(=O)(=O)c2ccc(N3CC[C@H](O)C3)c(S(C)(=N)=O)c2)cc1` (stereo partly drawn) [compound 129, N-(4-ethylphenyl)-4-((S)-3-hydroxypyrrolidin-1-yl)-N-isobutyl-3-(S-methylsulfonimidoyl)benzenesulfonamide], the IC50 in data set [3] and in data set [2] was greater than 1000 nM in each case.
Take `CCc1ccc(N(CC(C)C)S(=O)(=O)c2ccc(N3CC[C@@H](O)C3)c(S(C)(=N)=O)c2)cc1` (stereo partly drawn) [compound 130, N-(4-ethylphenyl)-4-((R)-3-hydroxypyrrolidin-1-yl)-N-isobutyl-3-(S-methylsulfonimidoyl)benzenesulfonamide]: the IC50 in data set [3] and in data set [2] was greater than 1000 nM throughout.
As to `CCc1ccc(N(CC(C)C)S(=O)(=O)c2ccc(N3CC(O)C3)c(S(C)(=N)=O)c2)cc1` (stereo not shown) [compound 131, N-(4-ethylphenyl)-4-(3-hydroxyazetidin-1-yl)-N-isobutyl-3-(S-methylsulfonimidoyl)benzenesulfonamide], the IC50 in data set [3] and in data set [2] was greater than 1000 nM each time.
As for `CCc1ccc(N(CC(C)C)S(=O)(=O)c2ccc(NCc3ccncn3)c(S(C)(=N)=O)c2)cc1` (stereo not shown) [compound 133, N-(4-ethylphenyl)-N-isobutyl-3-(S-methylsulfonimidoyl)-4-((pyrimidin-4-ylmethyl)amino)benzenesulfonamide], the IC50 in data set [3] and in data set [2] was less than 100 nM each time.
For `Cc1ccc(N(CC(C)C)S(=O)(=O)c2ccc(OCC3CCOCC3)c(S(C)(=N)=O)c2)c(C)c1` (stereo not shown) [compound 142, N-(2,4-dimethylphenyl)-N-isobutyl-3-(S-methylsulfonimidoyl)-4-((tetrahydro-2H-pyran-4-yl)methoxy)benzenesulfonamide], the IC50 in data set [3] and in data set [2] was less than 100 nM each time.
